The text below walks through data of article PMC3545186 (Biochemical Pharmacology, 2013).

Each structure is given as a SMILES string. Numbered stars: 1 amine (or outer) side, 2 acyl side, 3 side chain; on linkers, the order of the positions; unused ones are H or OH. Bridge positions count the residues as written; N and C are the ends. Square brackets hold non-standard residues; d marks the D form. Peptide text beside a SMILES is read from it. I, II: the chains in the order shown. Actinocin(9to1) = Cc1c2oc3c(C)ccc(C(=O)[*:1])c3nc-2c(C(=O)[*:2])c(N)c1=O; NMeV = CN[C@H](C(=O)O)C(C)C; Sar = CNCC(=O)O

In one series the test system is MDCKII-ABCC2 cells. The experiment in a line: Intracellular accumulation of Act D. The class given is in vitro ADME, canine.
For the next series, the system named is MDCKII-WT cells. The experiment in a line: Fluorescence competition assay with ABCB1 substrate doxorubicin. In kind it is cell-based, canine. The settings on record: 1 h pre-incubation, doxorubicin 10 μM 1 h.
The test system of a further series is ABCB1 (MDR1). The experiment in a line: Growth inhibition. The following applies: dog, 72 h.
For a further series, the system named is MDCKII-ABCB1 cells. The experiment in a line: Growth inhibition.

Regarding `Cc1c2oc3c(C)ccc(C(=O)N[C@@H]4C(=O)N[C@H](C(C)C)C(=O)N5CCC[C@H]5C(=O)N(C)CC(=O)N(C)[C@@H](C(C)C)C(=O)O[C@@H]4C)c3nc-2c(C(=O)N[C@@H]2C(=O)N[C@H](C(C)C)C(=O)N3CCC[C@H]3C(=O)N(C)CC(=O)N(C)[C@@H](C(C)C)C(=O)O[C@@H]2C)c(N)c1=O` [Act D, actinomycin D] (I: T[dV]P[Sar][NMeV] / II: T[dV]P[Sar][NMeV]; ester I:1-I:C, II:1-II:C; linker I:N-II:N via Actinocin(9to1)), the “increased accumulation with MK571 compared to absence of inhibitor” value with MDCKII-ABCC2 cells (MDCKII-ABCC2, not statistically significant) amounted to 1.4 fold. Further, the “lower accumulation of Act D compared to parental cell line” value in the series with MDCKII-ABCC2 cells (MDCKII-ABCC2 vs MDCKII-WT, 12 h) was 3.5 fold. The “Act D concentration at which intracellular doxorubicin levels plateaued” value with MDCKII-WT cells lay in the range of 0.1 to 1 µM. Besides, the GI50 at 72 h in the series with ABCB1 (MDR1) (GI50, MDCKII-ABCB1, + verapamil (1 μM)) amounted to 129 nM; with ABCB1 (MDR1) (GI50, MDCKII-ABCB1, Act D alone), 745 nM. Further, the “decrease in GI50 with verapamil” value with MDCKII-ABCB1 cells (MDCKII-ABCB1, verapamil 1 μM, 72 h) was 6 fold. The “difference in GI50 between MDCKII-WT and MDCKII-ABCB1” value in the series with MDCKII-ABCB1 cells (MDCKII-ABCB1 less sensitive than parental) amounted to 59 fold.

One may read the GI50 as the concentration at which growth is held to half of that of the control.
